Data as given in patent US11186577B2, “Vasopressin receptor antagonists and products and methods related thereto” (BlackThorn Therapeutics, Inc., priority 2017, dated 2021).
Read-outs that look alike come from different tables or passages of the source.

Key:
[1] = MDR1-MDCK effective efflux assay (Transwell, 10 μM, 1 hour), wild-type MDCK cells; assay type: in vitro ADME; conditions: dog, MDCK
Description: (§1) The MDR1-MDCK effective efflux assay was performed as described in the BioFocus Standard Operating Procedure, ADME-SOP-56. Both wild-type (WT) and MDR1-MDCK cells (Solvo Biotechnology) were seeded onto 24-well Transwell plates at 2.35×10^5 cells per well and used in confluent monolayers after a 3 day culture at 37° C. under 5% CO2. For both cell types, test and control compounds (propranolol, vinblastine) were added (10 μM, 0.1% DMSO final, n=2) to donor compartments of the Transwell plate assembly in assay buffer (Hanks balanced salt solution supplemented with 25 mM HEPES, adjusted to pH 7.4) for both apical to basolateral (A>B) and basolateral to apical (B>A) measurements. Incubations were performed at 37° C., with samples removed from both donor and acceptor chambers at T=0 and 1 hour and compound analysed by mass spectrometry (LC-MS/MS) including an analytical internal standard.
(§2) Where V is the volume of each Transwell compartment (apical 125 basolateral 600 and concentrations are the relative MS responses for compound (normalized to internal standard) in the donor chamber before incubation and acceptor chamber at the end of the incubation. Area=area of cells exposed for drug transfer (0.33 cm2).
(§3) Efflux ratios (Papp B>A/Papp A>B) were calculated for each compound from the mean Papp values in each direction for both wild-type and MDR1-MDCK cells.
(§4) In order to confirm the involvement of MDR1 in any efflux seen, an “effective efflux ratio” (EER) was calculated by comparing compound efflux ratios (ER) in the two cell types, i.e. EER=ER(MDR1−MDCK)/ER(wild-type MDCK)
(§5) This ratio illustrates the effect of the over-expressed MDR1 normalised for the background movement of compound through the wild-type cells.
(§6) Lucifer Yellow (LY) was added to the apical buffer in all wells to assess viability of the cell layer. Compound recovery from the wells was determined from MS responses (normalized to internal standard) in donor and acceptor chambers at the end of incubation compared to response in the donor chamber pre-incubation.

[2] = system: wild-type (WT) MDCK cells; assay: as above; assay type: in vitro ADME; conditions: for WT ER: MDCK; for Papp AB WT: wild-type MDCK cells, apical to basolateral (A>B), 10 μM, 1 hour
Description: as §1, §2, §3, §4, §5, §6

MDR1 (P-glycoprotein) = assay: MDR1-MDCK effective efflux assay (Transwell, 10 μM, 1 hour), MDR1-MDCK cells; assay type: in vitro ADME; conditions: dog
Description: as §1, §2, §3, §4, §5, §6

MDR1-MDCK cells = assay: as above; assay type: in vitro ADME; conditions: for MDR1 EER / MDR1 ER: MDCK-MDR1; for Papp AB MDR1: MDR1-MDCK cells, apical to basolateral (A>B), 10 μM, 1 hour
Description: as §1, §2, §3, §4, §5, §6

[3] = molecular target: human Arginine Vasopressin Receptor 1a (AVPR1a) (Homo sapiens (Human), UniProt P37288); assay: Vasopressin V1A receptor antagonist assay (AVP-evoked calcium, FLIPR, CHO-AVPR1a cells); assay type: cell-based
Procedure, shortened: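 CHO cells expressing human AVPR1a, Calcium-6 dye loaded 60-90 min, preincubated with compound 15 min at 37° C., then challenged with AVP at its daily-determined EC80. FLIPR fluorescence; 10-point 1:3 series from 3 μM, duplicates.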

[4] = molecular target: human Oxytocin Receptor (hOTR) (Homo sapiens (Human), UniProt P30559); assay: Oxytocin receptor antagonist assay (oxytocin-evoked calcium, FLIPR, CHEM-1-hOTR cells); assay type: cell-based; conditions: read-out: OT IC50
Description: This assay was performed in CHEM-1 cells expressing the human Oxytocin Receptor (hOTR) to determine the inhibitory effect of the compounds of the invention on the human Oxytocin receptor. Oxytocin evokes an increase in intracellular calcium in CHEM-1-hOTR cells which is measured in a fluorescence assay on the FLIPR^TETRA using calcium sensitive dyes. Test compounds were assessed for their ability to affect the magnitude of the response to oxytocin, with antagonists showing a concentration-dependent reduction in the oxytocin-mediated fluorescence.
CHEM-1-hOTR ready was used to assay frozen cells (Eurofins #HTS090RTA) which are supplied with a proprietary Media Component.
Cells were thawed in a 37° C. water bath and diluted with the supplied Media Component to a final volume of 10 ml. The cell suspension was centrifuged at 1000 rpm for 3 min at room temperature and the supernatant was discarded. The cell pellet was resuspended in Media Component (10.5 ml) and the cells (25 μL) were dispensed into a poly-D-lysine coated black, clear bottomed, 384-well plate. The plates were incubated overnight at 37° C., 5% CO2.
At the start of each assay day the potency of oxytocin was assessed and an EC80 concentration was determined for subsequent compound profiling. Assays were performed using a two-step addition protocol on the FLIPR^TETRA; first addition of 5 μl of control or test compound at 10× final in assay buffer with 15 min incubation at 37° C., 5% CO2 followed by 10 μl of oxytocin at 6× final concentration in assay buffer. Changes in fluorescence were monitored for 3 min after both additions on the FLIPR^TETRA using 470-495 nm excitation and 515-575 nm emission wavelengths. The assay buffer consisted of HBSS (+Ca/+Mg) supplemented with 20 mM HEPES, and for the preparation of the oxytocin agonist only, 0.1% w/v bovine serum albumin. The assay was initiated by the removal of growth media from the cells and replaced with 45 μl of Calcium-6 dye (Molecular Devices) prepared at 1× in assay buffer. Cells were loaded with dye for 60-90 min at 37° C., 5% CO2 before initiation of the FLIPR^TETRA protocol. […] For compound profiling, test compounds were first serially diluted in DMSO (10-point curve, 1:3 dilutions) then diluted 33.3-fold in assay buffer prior to addition to the dye loaded cells on the FLIPR^TETRA. At the end of the incubation period 10 μl of oxytocin in assay buffer containing 0.1% BSA was added at the previously determined EC80 concentration.
In-plate controls for the assay include a L-368,899 concentration-response curve as the reference OTR antagonist and an oxytocin concentration-response curve to confirm the reproducibility of the EC80 used for the compound challenge.

[5] = MDCK-MDR1, pH 7.4, Papp AB MDR1
[6] = pH 7.4, wild-type MDCK cells, apical to basolateral (A>B), 10 μM, 1 hour, read-out: Papp AB WT
[7] = MDCK-MDR1, pH 7.4, MDR1-MDCK cells, apical to basolateral (A>B), 10 μM, 1 hour, read-out: Papp AB MDR1

Chain of human Oxytocin Receptor (hOTR) (P30559 whole entry): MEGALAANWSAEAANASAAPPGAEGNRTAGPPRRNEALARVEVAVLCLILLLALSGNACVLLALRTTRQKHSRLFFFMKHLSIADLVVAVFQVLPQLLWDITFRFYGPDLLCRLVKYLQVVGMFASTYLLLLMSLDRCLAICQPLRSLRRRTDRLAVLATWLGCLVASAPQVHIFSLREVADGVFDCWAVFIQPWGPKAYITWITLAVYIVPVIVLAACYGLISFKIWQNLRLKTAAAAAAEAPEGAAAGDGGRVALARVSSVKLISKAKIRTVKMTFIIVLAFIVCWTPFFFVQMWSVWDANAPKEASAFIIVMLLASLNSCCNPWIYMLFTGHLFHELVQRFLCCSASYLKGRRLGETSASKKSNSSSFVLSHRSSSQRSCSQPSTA
Chain of human Arginine Vasopressin Receptor 1a (AVPR1a) (P37288 whole entry): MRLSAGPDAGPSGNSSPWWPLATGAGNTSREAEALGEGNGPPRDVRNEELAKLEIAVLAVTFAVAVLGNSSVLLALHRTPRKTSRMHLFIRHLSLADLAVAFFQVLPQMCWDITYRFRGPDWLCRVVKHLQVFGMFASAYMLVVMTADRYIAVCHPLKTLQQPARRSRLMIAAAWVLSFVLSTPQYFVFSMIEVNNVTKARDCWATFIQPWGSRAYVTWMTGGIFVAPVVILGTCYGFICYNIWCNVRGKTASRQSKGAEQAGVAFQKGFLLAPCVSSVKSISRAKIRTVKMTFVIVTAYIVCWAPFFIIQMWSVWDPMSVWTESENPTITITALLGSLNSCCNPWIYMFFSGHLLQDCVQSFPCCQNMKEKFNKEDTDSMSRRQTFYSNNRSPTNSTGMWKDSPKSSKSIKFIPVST

SMILES | Papp A→B at 1 h, 10 μM ([1]; pH 7.4, Papp AB WT) | WT ER [2] | Papp A→B at 1 h, 10 μM (MDR1 (P-glycoprotein); [5]) | MDR1 EER (MDR1-MDCK cells) | MDR1 ER (MDR1-MDCK cells) | Papp A→B at 1 h, 10 μM [1, 6] | IC50 ([3]; read-out: V1a IC50) | IC50 [4] | Papp A→B at 1 h, 10 μM (MDR1 (P-glycoprotein); [7]) | Papp AB WT [2] | IC50 [3] | Papp AB MDR1 (MDR1-MDCK cells)
CC1c2nnc(C3CC4(C3)CN(c3ccc(F)cn3)C4)n2-c2ccc(Cl)cc2CN1C(=O)OC(CF)CF (stereo not shown) [compound 203] | > 20 ×10⁻⁶ cm/s | +++ | 10 to 20 ×10⁻⁶ cm/s | +++ | ++ | – | – | – | – | – | – | –
CC(C)OC(=O)N1Cc2cc(Cl)ccc2-n2c(nnc2C2CC3(C2)CN(c2ncncc2F)C3)C1 [compound 185] | – | – | – | – | – | > 20 ×10⁻⁶ cm/s | < 0.1 µM | 0.5 to 1 µM | > 20 ×10⁻⁶ cm/s | – | – | –
COC(=O)N1Cc2cc(Cl)ccc2-n2c(nnc2C2CC3(C2)CN(c2ncccn2)C3)C1 [compound 95] | – | – | – | – | – | > 20 ×10⁻⁶ cm/s | < 0.1 µM | 0.5 to 1 µM | < 7 ×10⁻⁶ cm/s | – | – | –
CC1c2nnc(C3CC4(C3)CN(c3ccc(F)cn3)C4)n2-c2ccc(Cl)cc2CN1C (stereo not shown) [compound 179] | > 20 ×10⁻⁶ cm/s | +++ | > 20 ×10⁻⁶ cm/s | ++ | + | – | 0.1 to 0.5 µM | – | – | – | – | –
O=C(C1CC1)N1CC2(CC(c3nnc4n3-c3ccc(Cl)cc3CN(C(=O)C(F)(F)F)C4)C2)C1 [compound 137] | < 7 ×10⁻⁶ cm/s | + | < 7 ×10⁻⁶ cm/s | + | + | – | < 0.1 µM | – | – | – | – | –
CC1c2nnc(C3CC4(C3)CN(c3ncc(F)cn3)C4)n2-c2ccc(Cl)cc2CN1C(=O)OC(CF)CF (single isomer, unassigned) [Cpd 194A] | – | – | – | – | – | – | < 0.1 µM | – | – | ++++ ((++++) denotes >20 (10^-6 cm/sec)) | – | –
CCC1c2nnc(C3CC4(C3)CN(c3ccc(F)cn3)C4)n2-c2ccc(Cl)cc2CN1C(=O)OC (stereo not shown) [compound 197, methyl 8-chloro-4-ethyl-1-(2-(5-fluoropyridin-2-yl)-2-azaspiro[3.3]heptan-6-yl)-4H-benzo[f][1,2,4]triazolo[4,3-a][1,4]diazepine-5(6H)-carboxylate] | – | – | – | – | – | > 20 ×10⁻⁶ cm/s | – | – | > 20 ×10⁻⁶ cm/s | – | 0.1 to 0.5 µM | –
COC(=O)N1Cc2cc(Cl)ccc2-n2c(nnc2C2CC3(C2)CN(C(=O)C2CC2)C3)C1 [compound 162] | < 7 ×10⁻⁶ cm/s | + | < 7 ×10⁻⁶ cm/s | + | + | – | < 0.1 µM | – | – | – | – | –
CC(C)OC(=O)N1Cc2cc(Cl)ccc2-n2c(nnc2C2CC3(C2)CN(c2ccc(F)cn2)C3)C1 [compound 111] | – | – | – | – | – | > 20 ×10⁻⁶ cm/s | < 0.1 µM | 0.1 to 0.5 µM | > 20 ×10⁻⁶ cm/s | – | – | –
COc1ccc2c(c1)CN(C)Cc1nnc(C3CC4(C3)CN(c3cnccn3)C4)n1-2 [compound 19] | > 20 ×10⁻⁶ cm/s | +++ | < 7 ×10⁻⁶ cm/s | + | + | – | – | – | – | – | – | –
CC1c2nnc(C3CC4(C3)CN(c3ncccn3)C4)n2-c2ccc(Cl)cc2CN1C(=O)OC(CF)CF (single isomer, unassigned) [Cpd 202B] | – | – | – | – | – | – | > 1 µM | > 1 µM | – | ++++ ((++++) denotes >20 (10^-6 cm/sec)) | – | + ((+) denotes an apparent permeability <7 (10^-6 cm/sec))
CC1c2nnc(C3CC4(C3)CN(c3ncccn3)C4)n2-c2ccc(Cl)cc2CN1C(=O)OC(CF)CF (stereo not shown) [compound 202] | > 20 ×10⁻⁶ cm/s | ++++ | < 7 ×10⁻⁶ cm/s | + | + | – | – | – | – | – | – | –
CCOC(=O)N1Cc2cc(Cl)ccc2-n2c(C3CC4(C3)CN(c3ncc(F)cn3)C4)nnc2C1C (single isomer, unassigned) [Cpd 172A] | – | – | – | – | – | – | < 0.1 µM | – | – | ++++ ((++++) denotes >20 (10^-6 cm/sec)) | – | ++++ ((++++) denotes >20 (10^-6 cm/sec))
CC1c2nnc(C3CC4(C3)CN(c3ccc(F)cn3)C4)n2-c2ccc(Cl)cc2CN1C(=O)OC1CCC1 (stereo not shown) [compound 195] | 10 to 20 ×10⁻⁶ cm/s | +++ | > 20 ×10⁻⁶ cm/s | ++++ | +++ | – | – | – | – | – | – | –
COC(=O)N1Cc2cc(Cl)ccc2-n2c(nnc2C2CC3(C2)CN(c2cccnn2)C3)C1 [compound 75] | 10 to 20 ×10⁻⁶ cm/s | – | < 7 ×10⁻⁶ cm/s | + | + | – | < 0.1 µM | – | – | – | – | –
O=C1OCC2c3nnc(C4CC5(C4)CN(c4ccc(F)cn4)C5)n3-c3ccc(Cl)cc3CN12 (stereo not shown) [compound 200, 7-chloro-3-(2-(5-fluoropyridin-2-yl)-2-azaspiro[3.3]heptan-6-yl)-13,13a-dihydro-9H,11H-benzo[e]oxazolo[3,4-a][1,2,4]triazolo[3,4-c][1,4]diazepin-11-one] | – | – | – | – | – | > 20 ×10⁻⁶ cm/s | – | – | < 7 ×10⁻⁶ cm/s | – | 0.1 to 0.5 µM | –
COC(=O)N1Cc2cc(Cl)ccc2-n2c(nnc2C2CC3(C2)CN(c2cccc(C#N)n2)C3)C1 [compound 91, methyl 8-chloro-1-(2-(6-cyanopyridin-2-yl)-2-azaspiro[3.3]heptan-6-yl)-4H-benzo[f][1,2,4]triazolo[4,3-a][1,4]diazepine-5(6H)-carboxylate] | – | – | – | – | – | > 20 ×10⁻⁶ cm/s | < 0.1 µM | 0.5 to 1 µM | < 7 ×10⁻⁶ cm/s | – | – | –
COC(=O)N1Cc2cc(Cl)ccc2-n2c(C3CC4(C3)CN(c3ccncn3)C4)nnc2C1C (single isomer, unassigned) [Cpd 184A] | – | – | – | – | – | – | < 0.1 µM | – | – | ++++ ((++++) denotes >20 (10^-6 cm/sec)) | – | –
